EP4772500A1, “NOVEL ISOXAZOLE COMPOUND AS TM4SF5-SPECIFIC INHIBITOR AND USE THEREOF” (Seoul National University R&DB Foundation, priority 2023, dated 2025)

Test system: SNU761-TM4SF5
Experiment: Western blotting of SLAMF7 expression, TM4SF5-expressing SNU761 cells
Assay type: cell-based, human
Conditions: for expression level of SLAMF7 (WCL): whole-cell lysates, 24 hours (FIG. 15e-f)
Experimental: Cell extracts were obtained from cells grown to a density of 70-80% without any treatment, or from cells treated with vehicle DMSO or drugs at the given concentrations for 24 hours. For the extract of hepatocytes or liver cancer cells, a lysis buffer (150 mM NaCl, 1% NP-40, 50 mM Tris-HCl, 0.25% sodium deoxycholate, pH 7.4) including a protease inhibitor cocktail (GenDEPOT) was used. In addition, after washing animal liver tissue twice with PBS, SDS, Na3VO4, and protease inhibitor cocktails (GenDEPOT) were added to a lysis buffer [50 mM Tris-HCl, pH 7.4, 1% NP40, 0.25% sodium deoxycholate, 150 mM NaCl, 1 mM EDTA (based on 500 ml)], followed by treatment at 4°C for 15 minutes. After centrifugation at 13,000 rpm at 4°C for 30 minutes, only the supernatant was transferred to a new microcentrifuge tube. After quantification using BCA reagent (Thermo Scientific), a 4 × sample buffer [100% glycerol 4 ml, Tris-HCl, pH 6.8, 2.4 ml, SDS 0.8 g, Bromophenol blue 4 mg, betamercaptoethanol 0.4 ml, H2O 3.1 ml (based on 10 ml)] was added, followed by boiling at 100°C for 5 minutes. After performing SDS-PAGE electrophoresis with the above samples and transferring them to Nitrocellulose Membranes Protran™ nitrocellulose membranes (Whatman), pre-treatment was performed with 5% skim milk for 1 hour. After pre-treatment, primary antibodies of p-FAK(Y861) (SC-16663), p-FAK(Y577) (SC-16665), c-Src (SC-8056), STAT3 (SC-8019), p-AKT 1/2/3(S473) (SC-7985), STATS (SC-835), Laminin γ2 (SC-393225), COL1A1 (SC-28657), CCL5(RANTES) (SC-514019) CCL20(MIP-3α) (SC-517441), SIRT1 (SC-74465), ChREBP (SC-515922), SREBP1 (SC-366513), DGAT1 (SC-271934), DGAT2 (SC-293211), MICA/B (SC-137242), SLAMF7 (SC-390840), α-tublin (SC-5286), β-actin (SC-47778), FUCA (SC-365496) (the above from Santa Cruz Biotech, USA), p-FAK(Y397) (cat # 611723), FAK (cat # 610088), p27 (cat # 610242) (the above from BD Transduction, USA), p-FAK(Y925) (#3284) p-c-Src(Y416) (#2101), p-STAT3(Y705) (#9145), p70S6K1 (#9202), p-p70S6K1(T389) (#9205), p-STAT5(Y694) (#9314), ACC (#3676), FASN (#3189), CPT1A (#12252), p-ACC(S79) (#11818), HA (#3724), PD-L1 (#13684), PD-1 (#86163), p-ERK1/2(T202/Y204) (#9101s), ERK1/2 (#9102s) (the above from Cell Signaling Tech., USA), pS10p27(S10) (ab62364), human SLAMF6 (ab224201), TIGIT (ab233404), CD34 (ab81289) (the above from Abcam, UK), mouse SLAMF6 (PA5-87823), NKG2D (PA5-102038) (the above from Thermofisher, USA), α-SMA (Sigma Aldrich, A5228), CCL2 (Invitrogen, MA5-17040), and CD155(PVR) (Biolegend, 337601), HA (Biolegend, USA), Strep-HRP(horse-radish peroxidase), StrepMAB-HRP (IBA, USA), AFP (FineTest, FNab00203) were reacted at 4°C for 15 hours. The next day, secondary antibodies were reacted, and development was performed on X-ray film using ECL (Pierce, USA). […]
After 24 hours, vehicle DMSO, drug ST-1-025, or ST-5-002 was treated at the given concentrations. […] (f) After treating NK92-EV or NK92-TM4SF5 cells with DMSO or drugs ST-2-001 (1 nM), ST-3-005 (10 nM or 1 µM), ST-5-001, or ST-5-002 (100 nM or 1 µM) for 24 hours, the expression of SLAMF7 expressed on the cell surface was analyzed through immunostaining using flow cytometry. The expression level of SLAMF7 was confirmed by adding a SLAMF7 antibody to bind with SLAMF7 and then measuring the fluorescence linked to the SLAMF7 antibody using flow cytometry. […]

Compound	SLAMF7 expression level (SNU761-TM4SF5 (FIG. 13d))	SLAMF7 expression decreased due to TM4SF5 (SNU761 with FLAG-SLAMF7 and HA-TM4SF5, given concentrations, 24 hours (FIG. 15d))	expression level of SLAMF7 (WCL)
Cc1ccc(C(=O)Nc2ccc(-c3cc(-c4ccc(O)cc4)no3)cc2)cc1 [ST-5-002, N-(4-(3-(4-hydroxyphenyl)isoxazole-5-yl)phenyl)-4-methylbenzamide]	less lowered or remained high	showed a pattern of recovery	increasing again
COc1cccc(-c2cc(-c3ccc(NC(C)=O)cc3)no2)c1 [ST-3-001, N-(4-(5-(3-methoxyphenyl)isoxazole-3-yl)phenyl)acetamide]	–	–	did not show a recovery
